Measured values taken from patent publication US12104190B2, “Taxadiene synthase TcTS2, encoding nucleotide sequence and use thereof” (AGRICULTURAL GENOMICS INSTITUTE AT SHENZHEN, CHINESE …, priority 2020, dated 2024).

B1: TcTS2-His6: taxadiene synthase from Taxus chinensis var. mairei, amino acid sequence SEQ ID NO: 1 (protein)
chain: MSSSPTKLATENANAVAESNLIPRLSANYHGDLWHHGVIQTLQTPYQESSSYQERAEELIVKIKDMFKAVEEGAISPSAYDTAWVARVPDGSEKPRFPQALNWLLHNQLQDGSWGLESHFMLSDRLLSTLNSVISLLVWKTGQQQVEQGTLFITENLKLLEGEDELPPDFEIIFPALLQKAKALGMSLPDHDLPFIKSLSVAREARLASYTDNNIPASMLNALEGLEEVIDWDKIMRFQMPCLYSIDLLERLSLVDNIEHLGIGRHFKQEIKVALDYVYRYWSERGIGLGRDSLIPDLNTTALGLRTLRAHGYNVSSEVLNNFKDENGRFFSSLGQTHVELRSMVNLLRASDLAFPDEPLMDDAKIFAEAYLRDALATRISTNTKLFKEIDYAVEYPWHMSIPRLEARSYIDVYDDDYTWQNKTLYRMSNLSNAYCLELAKLDFNIVQSLHQEELKLLTRWWKESGMADINFTRHRVAEVYFSSATFEPEYSSTRIAFTKIGCLQVLFDDMADIFATLDELRDFTEGVKRWDTSLIHKLPDCMQTCFRVWFNLMEEVNNDVSNVQGRDMLNHIRKPWELYFNCYVQEREWLDAGYIPTLEEYLKTYSISVGLGPCTLQPILLMGDIVKDDVVEKVHYPSNLFELVSLSWRLTNDTKTYQAEKARGQQASGIACYMKDNPGSTEEDAIKYICGVVDRALKEACFEYFKPADDVPMSCKSFIFNLRLCVQIFYKFIDGYGIANEEIKDYIRKVYIEPIQV
modifications: C-terminal His6 tag; Amino acid sequence of Taxadiene Synthase TcTS2

What was measured:
TcTS1 gene = experiment: Expression pattern of TcTS1 gene under MeJA stress (qPCR); format: cell-based, Taxus chinensis var. mairei; details: 100 μM MeJA, 0-4 h, 2^−ΔΔCt, reference TcACTIN1
Method: (§1) Taxus chinensis var. mairei cell line 211 were divided into two groups: the experimental group (MeJA+) was soaked with 100 μM methyl jasmonate; the control group (MeJA−) was soaked with 0.05% ethanol solution. The experiments of the two groups were carried out at the same time, and the samples were collected after 0 h, 2 h, 3 h and 4 h respectively, for the analysis of the expression pattern of TcTSs gene and the content of baccatin III and paclitaxel, with three biological replicates.
(§2) EASYspin Plant Total RNA Extraction Kit (Aidlab, Beijing) was used to extract and collect the total RNA of the samples with different treatment times. 1 μg of total RNA of different samples was respectively taken for the synthesis of the first-strand cDNA, using it as the template for real-time fluorescence quantitative PCR. Kit Hifair® III 1st Strand cDNA Synthesis (YEASEN, China) and qPCR fluorescent dye kit Hieff® qPCR SYBR® Green Master Mix (Low Rox Plus) (commercial reagents, purchased from YEASEN, China) were used for the first-strand cDNA synthesis. qPCR experiments were performed on the QuantStudio™ 3 system with 2 technical replicates and 3 biological replicates. Actin1 (TcACTIN1) gene of Taxus chinensis var. mairei was used as an internal reference gene, and the relative expression of TcTSs genes was calculated by using the 2^−ΔΔCt method.

[1] = test system: Taxus chinensis var. mairei cell line 211; experiment: Content changes of baccatin III and paclitaxel for different treatment times of MeJA (LC-MS); format: cell-based; details: 100 μM MeJA
Method: as §1
The metabolites were extracted by the modified Wolfender method. The specific steps include: weighing 100 mg of lyophilized cell powder to place it in a 2 ml centrifuge tube, adding 1.5 ml of extraction buffer (methanol:water=80:20, v/v) and vortexing to suspend it, containing 500 ng/ml dexamethasone as the internal standard, after ultrasonic extraction for 30 min, centrifuging at 14,000 g for 15 min; the supernatant was centrifuged and dried in a vacuum concentrator (LABCONCO), and finally the sample was resuspended in 200 μL methanol solvent (80:20, v/v) for LCMS analysis. Samples were analyzed by LC-MS by using an ACQUITY UPLC I-Class/AB SCIEX (Waters) instrument.
The separation column was Waters (2.1×50 mm; ACQUITY UPLC™ Waters XselectHSS T3); the injection volume was 10 μL, and the flow rate was 0.2 mL/min.
The mobile phase composition: A was 0.1% formic acid methanol; B was 0.1% formic acid water.
The LC separation procedure was as follows: equilibrating with 40% A for 2 min, followed by gradient elution for 10 min to 100% B, maintaining for 2 min, and then returning to 40% A equilibration for 1 min. ESI ion source, positive ion mode. Data acquisition and processing were performed on AB SCIEXAnalyst 1.6.3 software (Applied Biosystems).

TcTS2 gene = experiment: Expression pattern of TcTS2 gene under MeJA stress (qPCR); format: cell-based, Taxus chinensis var. mairei; details: 100 μM MeJA, 4 h, 2^−ΔΔCt, reference TcACTIN1
Method: as §1, §2

[2] = Kinetic constants of TcTSs-His6 ([1-3H]-GGPP, liquid scintillation counting); format: biochemical, Taxus chinensis var. mairei
Method: Kinetic parameter detection: standard enzymatic reaction with a total volume of 100 μL, containing enzyme reaction buffer (25 mM, pH 8.5, 10% glycerol, 5 mM DTT, 5 mM ascorbate, 5 mM sodium metabisulfite and 1 mM MgCl2), 34 μg (TcTS1-His6) or 18 μg (TcTS2-His6) recombinant protein, and […] concentrations of GGPP (0.2 μM, 0.5 μM, 1 μM, 2.5 μM, 5 μM, 10 μM, 25 μM, 50 μM) mixed with […] substrate (American Radiolabeled Chemicals, Inc, 30 Ci/mM).
Labeled [1-3H]-GGPP was diluted 400-fold with unlabeled GGPP (Sigma, 1 mg/mL). The reaction mixture was reacted at 32° C. for 30 min, then quenching with 100 μL of stop buffer (containing IM EDTA and 4M NaOH) for 10 min; the reaction mixture was extracted with 800 μL of n-hexane (vortexing for 2 min, centrifuging at 12,000 rpm for 10 min); 400 μL of n-hexane extract was taken to add into 2 mL of liquid scintillation cocktail to mix well. The total radioactivity of the reaction products was determined by using a liquid scintillation counter (Tri-Carb 2910TR, Perkin Elmer). Kinetic constants were calculated by nonlinear regression fitting of Michaelis-Menten equation through Origin 8.6 software.

[3] = In vitro activity of TcTSs-His6 (GC-MS of enzymatic reaction product); format: biochemical, Taxus chinensis var. mairei; details: 100 μg purified protein, 100 μM GGPP, 32° C., 2 h
Method: The in vitro enzymatic reaction system was 500 μL, containing 100 μg purified protein, 100 μM GGPP (Sigma-Aldrich) and enzyme reaction buffer (25 mM, pH 8.5, 10% glycerol, 5 mM DTT, 5 mM ascorbate, 5 mM sodium metabisulfite and 1 mM MgCl2), the reaction mixture was covered with 500 μL of pentane (Macklin, GC-MS grade) and reacted in a 32° C. water bath for 2 h, vortexing for 2 min, centrifuging at 5000 rpm for 10 min; the pentane layer was taken out, putting into 2 mL of the sample, concentrating at low temperature by using a nitrogen blower; the product was analyzed by gas chromatography mass spectrometry (GC-MS) instrument.
The control group was the reaction product of purified recombinant protein TcTSs-His6 after being boiled at 100° C. for 10 min. The GC-MS instrument was Agilent 7890B/7000C (Agilent Technologies, Waldbronn, USA), mass spectrometry detector parameters: 70 eV, helium flow rate 1.2 mL/min, chromatographic column Agilent HP-5 MS (5% phenylmethyl silica, 30 m×250 μm inner diameter, 0.25 μm film thickness), the injection volume is 1-5 μL; the temperature program of the column oven is as follows: 45° C. for 1 min, then 10° C./min gradient increase to 250° C., and remaining at 250° C. for 5 min. […]

[4] = substrate GGPP, 32° C., 30 min, Michaelis-Menten fit

| Molecule | expression of TcTS1 under MeJA stress (TcTS1 gene) | increased fold of baccatin III as compared to the control group ([1]; 2 h) | increased fold of paclitaxel as compared to the control group ([1]; 2 h) | increase fold of baccatin III ([1]; 4 h) | increase fold of paclitaxel ([1]; 4 h) | induction fold of TcTS2 expression relative to 0 h (TcTS2 gene) | catalytic efficiency relative to TcTS1-His6 (Kcat value) ([2]; from Kcat values) | Ka [2, 4] | Kcat [2, 4] | main products taxa-4 (5), 11 (12)-diene (accounting for) [3] | secondary products taxa-4 (20), 11 (12)-diene (accounting for) [3] |
| --- | --- | --- | --- | --- | --- | --- | --- | --- | --- | --- | --- |
| CC/C=C\CC1C(=O)CCC1CC(=O)OC (centres unmarked) [MeJA, methyl jasmonate] | up-regulated | 1.48 times | 9.53 times | 7.01 times | 12.91 times | 7 | – | – | – | – | – |
| B1 | – | – | – | – | – | – | 3 times | 8.6 ± 1.5 pM/µg/min | 0.00901 s⁻¹ | 94% | 4% |
